Reference: patent US5763597A, “Orally active adenosine kinase inhibitors” (priority 1996, dated 1998)
Read-outs that look alike come from different tables or passages of the source.

Columns and labels:
rat cardiomyocytes = details: cited from earlier work
[1] = system: isolated guinea pig hearts; details: without ADA inhibition; cited from earlier work
[2] = background; hence potentially short half life; cited from earlier work
mice = details: cited from earlier work; for general flaccidity and spontaneous locomotor activity: interpreted to be skeletal muscle relaxation
guinea pig brain slices = details: cited from earlier work
rat brain slices = details: cited from earlier work
dog hearts = details: cited from earlier work
isolated rat hearts = details: compound alone, cited from earlier work
[3] = background; cited from earlier work
[4] = system: formalin-induced pain in rats; assay: Analgesic activity, formalin paw model; type: in vivo; details: rat, oral, 20 mg/kg; for % Inhibition Phase 1 Composite score: Phase 1 (1.7-5 min post-formalin); for % Inhibition Phase 2 Composite score: Phase 2 (10.3-30 min post-formalin); for % Inhibition Phase 2 Licking/biting: Phase 2, licking/biting incidences
Source text: Pharmacol. Exper. Ther., 250:3, 915-922 (1989). See also, Life Sciences 51:171-76 (1992). These models measure pain avoidance and tolerance in response to a regulated stimulus, and compare the response of animals before and after they are given test compound. Formalin Paw Assay In this assay, injection of formalin, an irritant, into the hindpaw of rats typically evokes a biphasic response of pain-related behaviors. […] Phase I behavior is thought to be a direct effect of the irritant on nociceptors at the injection site while phase 2 behavior is thought to include a hyperalgesic component mediated by sensitization of neuronal elements within the spinal cord. Studies from other laboratories have found the first portion of Phase 2 (sometimes referred to as Phase 2a) to be most responsive to pharmacological manipulation. Rats (male, Simonsen) weighing between 100-200 g, are used in the present experiments. For screening purposes drugs are administered orally 90 min prior to initiation of formalin test. […] The rat is then immediately placed in a separate plexiglass box and scoring (described below) of the animal's behavior is begun at 1.7 min after formalin injection. […] This sequence is repeated over a 30 min period. […] Scores are continuously recorded directly onto an Excel spreadsheet.

[5] = system: hot plate pain response in male SA rats; assay: Analgesic activity, hot plate; type: in vivo; details: rat, po
Source text: Ther., 250:3, 915-922 (1989). See also, Life Sciences 51:171-76 (1992). These models measure pain avoidance and tolerance in response to a regulated stimulus, and compare the response of animals before and after they are given test compound.

[6] = system: carrageenan paw swelling in rats; assay: Anti-inflammatory activity, carrageenan paw swelling; type: in vivo; details: rat, swelling after 3 hours; for Carrageenan Paw (% inh) ip: 10 mg/kg ip, 30 min before carrageenan; for Carrageenan Paw (% inh) po: 10 mg/kg po, 1 h before carrageenan
adenosine kinase = assay: AK inhibition (adenosine kinase activity, [U-14C] adenosine); type: biochemical, partially purified pig heart or recombinant human; details: 0.5 μM adenosine, 1 mM ATP, pH 7.0, 20 min; pig heart or recombinant human enzyme
Method: Adenosine kinase activity was measured essentially as described by Yamada et al. Biochim. Biophys. Acta 660, 3643 (1988) with a few minor modifications. Assay mixtures contained 50 mM TRIS-maleate buffer, pH 7.0, 0.1% BSA, 1 mM ATP 1 mM MgCl2, 0.5 μM [U-^14 C] adenosine (400-600 mCi/mmol) and varying duplicate concentrations of inhibitor. […] The amount of ^14 C-AMP was quantified by scintillation counting.

[7] = Oral bioavailability in dogs; type: in vivo, female beagle dogs; details: dog, 10 mg/kg oral versus iv, dose-corrected AUC to infinity, PEG-400
Method: Oral bioavailability was determined by comparing the dose corrected areas under the plasma-concentration time curve (AUC) to infinity for the each tested compound, given orally and intravenously in dogs. […] One dog received this solution at an infusion rate of 0.1 mL/min for 20 minutes. The other dog received a 0.2 mL/in infusion for 10 minutes. […] The plasma was separated within 10 minutes of blood collection and was stored frozen. The plasma concentration of compound was then determined for these IV infusions. […] The plasma concentration of compound was determined for this oral administration. The samples were assayed for intact adenosine kinase inhibitor by high performance liquid chromatography (HPLC). An internal standard was added to each test sample and standard sample. Each was then extracted with 10 volumes of 1% v/v dimethylsulfoxide in acetonitrile. […] The dried residue was reconstituted in mobile phase and the contents were analyzed for the adenosine kinase inhibitor (AKI) on HPLC. […] Pharmacokinetic parameters were calculated from the plasma concentration vs. time data, using standard non-compartmental methods. […] (1983).

[8] = system: maximal electroshock seizures (hind limb tonic extension) in male SA rats; assay: Anticonvulsant activity, maximal electroshock (MES) model; type: in vivo; details: rat
[9] = po, fasted overnight, ">>" (written >) = no activity at stated dose, read-out: Anticonvulsant ED50 (MES) po
[10] = ip, ">5" = HTE inhibited in fewer than 50% of animals at 5 mg/kg screen, ">>" (written >) = no activity, "<" = maximal activity at stated dose, read-out: Anticonvulsant ED50 (MES) ip

OC[C@H]1O[C@@H](n2cnc3c2N=CNC[C@H]3O)C[C@@H]1O [2'-deoxycoformycin]
effect on adenosine release from the cells (rat cardiomyocytes; adenosine deaminase inhibition): no effect on adenosine release from the cells

NC[C@H]1O[C@@H](n2cnc3c(N)ncnc32)[C@H](O)[C@@H]1O [5'-amino-5'-deoxyadenosine]
adenosine release in the absence of ADA inhibition [1]: These effects were not apparent in the absence of ADA inhibition | increase in adenosine release (rat cardiomyocytes; together with ADA inhibition): 6 fold | susceptibility to deamination [2]: susceptibility of 5'-amino-5'-deoxyadenosine to deamination

C[C@H]1O[C@@H](n2cc(I)c3c(N)ncnc32)[C@H](O)[C@@H]1O [5'-deoxy-5-iodotubercidin]
body temperature (hypothermia) (mice): hypothermia | general flaccidity and spontaneous locomotor activity (mice): pronounced general flaccidity and much-reduced spontaneous locomotor activity | adenosine uptake, guinea pig brain slices (guinea pig brain slices): adenosine uptake was reportedly inhibited | adenosine uptake, rat brain slices (rat brain slices): adenosine uptake was reportedly inhibited

Nc1ncnc2c1c(I)cn2[C@@H]1O[C@H](CO)[C@@H](O)[C@H]1O [5-iodotubercidin]
effects in dog heart ischemia and reperfusion (dog hearts): inconsistent effects | perfusate adenosine concentration, hypoxic, anoxic or ischemic (isolated rat hearts; hypoxic, anoxic or ischemic conditions): no increase in perfusate adenosine concentration | perfusate adenosine concentration, normoxic (isolated rat hearts; normoxic conditions): no increase in perfusate adenosine concentration | cytotoxicity [3]: cytotoxicity of 5-iodotubercidin | body temperature (hypothermia) (mice): hypothermia | general flaccidity and spontaneous locomotor activity (mice): pronounced general flaccidity and much-reduced spontaneous locomotor activity | adenosine uptake, guinea pig brain slices (guinea pig brain slices): adenosine uptake was reportedly inhibited | adenosine uptake, rat brain slices (rat brain slices): adenosine uptake was reportedly inhibited

C[C@H]1O[C@@H](n2cc(-c3ccccc3)c3c(Nc4ccc(F)cc4)ncnc32)[C@H](O)[C@@H]1O [compound 1]
% Inhibition Phase 1 Composite score [4]: 7.4% | % Inhibition Phase 2 Composite score [4]: 33.3% | % Inhibition Phase 2 Licking/biting [4]: 59% | ED50 [5]: 16.6 mg/kg | Carrageenan Paw (% inh) ip [6]: 3.5 % inh | Carrageenan Paw (% inh) po [6]: 0.2 % inh | IC50 (adenosine kinase): 11 nM

C[C@H]1O[C@@H](n2cc(-c3ccc(F)cc3)c3c(Nc4ccc(F)cc4)ncnc32)[C@H](O)[C@@H]1O [compound 2]
% Oral Availability [7]: 47%

CC(=O)Nc1ccc(Nc2ncnc3c2c(-c2ccccc2)cn3[C@@H]2O[C@H](C)[C@@H](O)[C@H]2O)cc1 [compound 32]
ED50 [8, 9]: > 10 mg/kg | % Inhibition Phase 1 Composite score [4]: 0% | % Inhibition Phase 2 Composite score [4]: 30.9% | % Inhibition Phase 2 Licking/biting [4]: 56% | IC50 (adenosine kinase): 0.5 nM

C[C@H]1O[C@@H](n2cc(-c3ccccc3)c3c(Nc4ccc(S(N)(=O)=O)cc4)ncnc32)[C@H](O)[C@@H]1O [compound 34]
ED50 [8, 9]: > 10 mg/kg | Carrageenan Paw (% inh) ip [6]: 1.7 % inh | Carrageenan Paw (% inh) po [6]: 0 % inh | IC50 (adenosine kinase): 5 nM

[N-]=[N+]=NC[C@H]1O[C@@H](n2nc(-c3cccs3)c3c(Nc4ccccc4)ncnc32)[C@H](O)[C@@H]1O [compound 97]
Anticonvulsant ED50 (MES) ip ([8]; ip, ">5" = HTE inhibited in fewer than 50% of animals at 5 mg/kg screen, ">>" (written >) = no activity, "<" = maximal activity at stated dose): > 5 mg/kg | IC50 (adenosine kinase): 10 nM

CCOC(=O)Cc1ccc(Nc2ncnc3c2c(-c2ccccc2)cn3[C@@H]2O[C@H](C)[C@@H](O)[C@H]2O)cc1 [compound 127]
ED50 [8, 10]: 5 mg/kg | Carrageenan Paw (% inh) ip [6]: 5.4 % inh | Carrageenan Paw (% inh) po [6]: 2.9 % inh | IC50 (adenosine kinase): 2 nM

C[C@H]1O[C@@H](n2cc(-c3ccc(CO)cc3)c3c(Nc4ccccc4)ncnc32)[C@H](O)[C@@H]1O [compound 130]
ED50 [8, 10]: > 5 mg/kg | Carrageenan Paw (% inh) ip [6]: 0.0 % inh | Carrageenan Paw (% inh) po [6]: 3.9 % inh | IC50 (adenosine kinase): 6 nM
